Laboratory results reported in patent publication US10294202B2, “Pyrrolidinones as herbicides” (FMC Corporation, priority 2013, dated 2019).

How the values were obtained:
barnyardgrass [1] = test: Test A pre-/postemergence herbicide test; assay type: in vivo, Echinochloa crus-galli
In short: (§1)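 Scoring was visual, relative to untreated controls, on a 0–100 scale after about 10 greenhouse days. Preemergence treatment used a directed soil spray over seeded loam/sand; postemergence treatment targeted one- to two-leaf plants of 2–10 cm.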

kochia = test: Test A pre-/postemergence herbicide test; assay type: in vivo, Kochia scoparia
In short: as §1

ragweed = test: Test A pre-/postemergence herbicide test; assay type: in vivo, Ambrosia elatior
In short: as §1

ryegrass, Italian = test: Test A pre-/postemergence herbicide test; assay type: in vivo, Lolium multiflorum
In short: as §1

giant foxtail = test: Test A pre-/postemergence herbicide test; assay type: in vivo, Setaria faberii
In short: as §1

pigweed = test: Test A pre-/postemergence herbicide test; assay type: in vivo, Amaranthus retroflexus
In short: as §1

wheat = test: Test A pre-/postemergence herbicide test; assay type: in vivo, Triticum aestivum; conditions: Postemergence
In short: as §1

corn = test: Test A pre-/postemergence herbicide test; assay type: in vivo, Zea mays; conditions: Postemergence
In short: as §1

blackgrass = test: Test A postemergence herbicide test; assay type: in vivo, Alopecurus myosuroides
In short: (§2)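 Plants at the one- to two-leaf stage, 2–10 cm tall, grown in loam/sand pots, received postemergence sprays of the test chemicals. After about 10 days in the greenhouse, injury was scored visually against untreated controls on a 0–100 scale (0 none, 100 complete control).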

galium = test: Test A postemergence herbicide test; assay type: in vivo, Galium aparine
In short: as §2

rice = test: Test B flooded paddy test; assay type: in vivo, Oryza sativa; conditions: 500 g ai/ha, Flood; scale of 0 to 100 where 0 is no effect and 100 is complete control
In short: (§3)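 Treatment was made at the 2-leaf stage by dosing the standing floodwater, kept 3 cm above soil level for the whole test. Greenhouse exposure lasted 13 to 15 days. Response is a visual percent rating relative to controls, where a dash indicates no test result.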

sedge, umbrella = test: Test B flooded paddy test; assay type: in vivo, Cyperus difformis; conditions: 500 g ai/ha, Flood; scale of 0 to 100 where 0 is no effect and 100 is complete control
In short: as §3

ducksalad = test: Test B flooded paddy test; assay type: in vivo, Heteranthera limosa; conditions: 500 g ai/ha, Flood; scale of 0 to 100 where 0 is no effect and 100 is complete control
In short: as §3

barnyardgrass [2] = test: Test B flooded paddy test; assay type: in vivo, Echinochloa crus-galli; conditions: 500 g ai/ha, Flood; scale of 0 to 100 where 0 is no effect and 100 is complete control
In short: as §3

[3] = Postemergence, 125 g ai/ha, visual rating on 0 to 100 scale (0 no effect, 100 complete control), approx. 10 days
[4] = Postemergence, 500 g ai/ha, 0 to 100 scale (0 no effect, 100 complete control)
[5] = Preemergence, 125 g ai/ha, 0 to 100 scale where 0 is no effect and 100 is complete control
[6] = Preemergence, 500 g ai/ha, visual rating on 0 to 100 scale (0 no effect, 100 complete control)
[7] = 125 g ai/ha, visual rating on 0 to 100 scale (0 no effect, 100 complete control), approx. 10 days
[8] = 500 g ai/ha, 0 to 100 scale (0 no effect, 100 complete control)

Compound	Plant response rating, Barnyardgrass (barnyardgrass [1]; [3])	Plant response rating, Barnyardgrass (barnyardgrass [1]; [4])	Plant response rating, Barnyardgrass (barnyardgrass [1]; [5])	Barnyardgrass plant response rating (barnyardgrass [1]; [6])	Plant response rating, Kochia (kochia; [3])	Plant response rating, Kochia (kochia; [5])	Kochia plant response rating (kochia; [6])	Plant response rating, Ragweed (ragweed; [3])	Plant response rating, Ragweed (ragweed; [5])	Ragweed plant response rating (ragweed; [6])	Plant response rating, Ryegrass, Italian (ryegrass, Italian; [3])	Plant response rating, Ryegrass, Italian (ryegrass, Italian; [5])	Ryegrass, Italian plant response rating (ryegrass, Italian; [6])	Plant response rating, Foxtail, Giant (giant foxtail; [3])	Plant response rating, Foxtail, Giant (giant foxtail; [4])	Plant response rating, Foxtail, Giant (giant foxtail; [5])	Foxtail, Giant plant response rating (giant foxtail; [6])	Plant response rating, Pigweed (pigweed; [3])	Plant response rating, Pigweed (pigweed; [5])	Pigweed plant response rating (pigweed; [6])	also measured
CC(C)c1cccc(C2CNC(=O)C2C(=O)Nc2ccccc2C(F)(F)F)c1 (stereo not drawn) [Compound 320]	50	90	20	80	20	0	20	0	0	30	0	20	50	30	70	30	90	0	0	0	Plant response rating, Kochia (kochia; [4]): 20; Plant response rating, Ragweed (ragweed; [4]): 30; Plant response rating, Ryegrass, Italian (ryegrass, Italian; [4]): 30; Plant response rating, Pigweed (pigweed; [4]): 0; Plant response rating, Wheat (wheat; [7]): 0; Plant response rating, Wheat (wheat; [8]): 0; Plant response rating, Corn (corn; [7]): 0; Plant response rating, Corn (corn; [8]): 0; Plant response rating, Blackgrass (blackgrass; [7]): 0; Plant response rating, Blackgrass (blackgrass; [8]): 20; Plant response rating, Galium (galium; [7]): 0; Plant response rating, Galium (galium; [8]): 0; Plant response rating, Rice (rice): 0; Plant response rating, Sedge, Umbrella (sedge, umbrella): 0; Plant response rating, Ducksalad (ducksalad): 100; Plant response rating, Barnyardgrass (barnyardgrass [2]): 45
O=C1NCC(c2ccc(Br)c(Br)c2)C1C(=O)Nc1ccccc1F (stereo not drawn) [Compound 339]	40	60	60	80	0	0	0	0	0	0	0	0	20	60	60	70	80	0	0	0	Plant response rating, Wheat (wheat; [7]): 0; Plant response rating, Corn (corn; [7]): 0; Plant response rating, Corn (corn; [8]): 0; Plant response rating, Blackgrass (blackgrass; [7]): 0; Plant response rating, Blackgrass (blackgrass; [8]): 0; Plant response rating, Galium (galium; [7]): 0; Plant response rating, Rice (rice): 0; Plant response rating, Sedge, Umbrella (sedge, umbrella): 0; Plant response rating, Ducksalad (ducksalad): 65; Plant response rating, Barnyardgrass (barnyardgrass [2]): 40
